ChEMBL document CHEMBL3885881, “DrugMatrix”

Species on record: Rattus norvegicus
Assay: DrugMatrix - Regimen: Daily Repeat
Assay type: toxicity, organism-based, Sprague-Dawley
Parameters: regimen Daily Repeat, gender Male, age 6-8 weeks
Settings: in vivo, po, route oral GAVAGE, vehicle .5 % CMC; for ABSOLUTE BASOPHIL / ABSOLUTE EOSINOPHIL / ABSOLUTE LYMPHOCYTE / ABSOLUTE MONOCYTE / ABSOLUTE SEGMENTED NEUTROPHIL / BASOPHIL / EOSINOPHIL / ERYTHROCYTE COUNT / HEMATOCRIT / HEMOGLOBIN / LEUKOCYTE COUNT / LYMPHOCYTE / MEAN CORPUSCULAR HEMOGLOBIN / MEAN CORPUSCULAR HEMOGLOBIN CONCENTRATION / MEAN CORPUSCULAR VOLUME / MONOCYTE / NEUTROPHIL / NUCLEATED RED BLOOD CELLS / PLATELET COUNT: tissue Blood; for ALANINE AMINOTRANSFERASE / ALBUMIN / ALKALINE PHOSPHATASE / ASPARTATE AMINOTRANSFERASE / BLOOD UREA NITROGEN / CARBON DIOXIDE / CHLORIDE / CHOLESTEROL / CREATINE PHOSPHOKINASE / CREATININE / GLUCOSE / LACTATE DEHYDROGENASE / LIPASE / PHOSPHORUS / POTASSIUM / SODIUM / TOTAL BILIRUBIN / TOTAL PROTEIN / URIC ACID: tissue Plasma
[1] = 10 mg/kg, 72 h, dose level Low, time 3 day
[2] = 10 mg/kg, 120 h, dose level Low, time 5 day
[3] = 310 mg/kg, 72 h, dose level High, time 3 day
[4] = 310 mg/kg, 120 h, dose level High, time 5 day

Compound: O=C1CN=C(c2ccccc2)c2cc([N+](=O)[O-])ccc2N1 [NITRAZEPAM]
- ABSOLUTE BASOPHIL [1]: 0 CELLS/uL
- ABSOLUTE EOSINOPHIL [1]: 19 CELLS/uL
- ABSOLUTE LYMPHOCYTE [1]: 6878.67 CELLS/uL
- ABSOLUTE MONOCYTE [1]: 19 CELLS/uL
- ABSOLUTE SEGMENTED NEUTROPHIL [1]: 750 CELLS/uL
- BASOPHIL [1]: 0%
- EOSINOPHIL [1]: 0.33%
- ERYTHROCYTE COUNT [1]: 5.13 x10E6/uL
- HEMATOCRIT [1]: 31.73%
- HEMOGLOBIN [1]: 12.93 G/DL
- LEUKOCYTE COUNT [1]: 7.67 x10E3/uL
- LYMPHOCYTE [1]: 90.33%
- MEAN CORPUSCULAR HEMOGLOBIN [1]: 25.23 pg
- MEAN CORPUSCULAR HEMOGLOBIN CONCENTRATION [1]: 40.73 G/DL
- MEAN CORPUSCULAR VOLUME [1]: 61.9 fL
- MONOCYTE [1]: 0.33%
- NEUTROPHIL [1]: 9%
- NUCLEATED RED BLOOD CELLS [1]: 0 /100WBC
- PLATELET COUNT [1]: 847 x10E3/uL
- ALANINE AMINOTRANSFERASE [1]: 48.67 u/L
- ALBUMIN [1]: 4.23 G/DL
- ALKALINE PHOSPHATASE [1]: 424.33 u/L
- ASPARTATE AMINOTRANSFERASE [1]: 76.67 u/L
- BLOOD UREA NITROGEN [1]: 15 mg/dL
- CARBON DIOXIDE [1]: 31 mmol/L
- CHLORIDE [1]: 103 MEQ/L
- CHOLESTEROL [1]: 76.67 mg/dL
- CREATINE PHOSPHOKINASE [1]: 169 u/L
- CREATININE [1]: 0.18 mg/dL
- GLUCOSE [1]: 141.67 mg/dL
- LACTATE DEHYDROGENASE [1]: 124.67 u/L
- LIPASE [1]: 10 u/L
- PHOSPHORUS [1]: 10.73 mg/dL
- POTASSIUM [1]: 5.83 MEQ/L
- SODIUM [1]: 149.6 MEQ/L
- TOTAL BILIRUBIN [1]: 0.2 mg/dL
- TOTAL PROTEIN [1]: 5.43 G/DL
- URIC ACID [1]: 0.9 mg/dL
- ABSOLUTE BASOPHIL [2]: 0 CELLS/uL
- ABSOLUTE EOSINOPHIL [2]: 0 CELLS/uL
- ABSOLUTE LYMPHOCYTE [2]: 11358.67 CELLS/uL
- ABSOLUTE MONOCYTE [2]: 0 CELLS/uL
- ABSOLUTE SEGMENTED NEUTROPHIL [2]: 1008 CELLS/uL
- BASOPHIL [2]: 0%
- EOSINOPHIL [2]: 0%
- ERYTHROCYTE COUNT [2]: 5.81 x10E6/uL
- HEMATOCRIT [2]: 35.47%
- HEMOGLOBIN [2]: 13.93 G/DL
- LEUKOCYTE COUNT [2]: 12.37 x10E3/uL
- LYMPHOCYTE [2]: 92%
- MEAN CORPUSCULAR HEMOGLOBIN [2]: 24.07 pg
- MEAN CORPUSCULAR HEMOGLOBIN CONCENTRATION [2]: 39.33 G/DL
- MEAN CORPUSCULAR VOLUME [2]: 61.13 fL
- MONOCYTE [2]: 0%
- NEUTROPHIL [2]: 8%
- NUCLEATED RED BLOOD CELLS [2]: 0 /100WBC
- PLATELET COUNT [2]: 1206.67 x10E3/uL
- ALANINE AMINOTRANSFERASE [2]: 43.67 u/L
- ALBUMIN [2]: 4.43 G/DL
- ALKALINE PHOSPHATASE [2]: 331.67 u/L
- ASPARTATE AMINOTRANSFERASE [2]: 77.33 u/L
- BLOOD UREA NITROGEN [2]: 18 mg/dL
- CARBON DIOXIDE [2]: 26.67 mmol/L
- CHLORIDE [2]: 102 MEQ/L
- CHOLESTEROL [2]: 67.67 mg/dL
- CREATINE PHOSPHOKINASE [2]: 186.67 u/L
- CREATININE [2]: 0.2 mg/dL
- GLUCOSE [2]: 147.33 mg/dL
- LACTATE DEHYDROGENASE [2]: 109.33 u/L
- LIPASE [2]: 9.33 u/L
- PHOSPHORUS [2]: 13.13 mg/dL
- POTASSIUM [2]: 6.92 MEQ/L
- SODIUM [2]: 147.33 MEQ/L
- TOTAL BILIRUBIN [2]: 0.23 mg/dL
- TOTAL PROTEIN [2]: 6.4 G/DL
- URIC ACID [2]: 2.13 mg/dL
- ABSOLUTE BASOPHIL [3]: 0 CELLS/uL
- ABSOLUTE EOSINOPHIL [3]: 0 CELLS/uL
- ABSOLUTE LYMPHOCYTE [3]: 11568.33 CELLS/uL
- ABSOLUTE MONOCYTE [3]: 226.67 CELLS/uL
- ABSOLUTE SEGMENTED NEUTROPHIL [3]: 871.67 CELLS/uL
- BASOPHIL [3]: 0%
- EOSINOPHIL [3]: 0%
- ERYTHROCYTE COUNT [3]: 5.41 x10E6/uL
- HEMATOCRIT [3]: 34%
- HEMOGLOBIN [3]: 13.63 G/DL
- LEUKOCYTE COUNT [3]: 12.67 x10E3/uL
- LYMPHOCYTE [3]: 90.67%
- MEAN CORPUSCULAR HEMOGLOBIN [3]: 25.23 pg
- MEAN CORPUSCULAR HEMOGLOBIN CONCENTRATION [3]: 40.1 G/DL
- MEAN CORPUSCULAR VOLUME [3]: 62.87 fL
- MONOCYTE [3]: 1.67%
- NEUTROPHIL [3]: 7.67%
- NUCLEATED RED BLOOD CELLS [3]: 0 /100WBC
- PLATELET COUNT [3]: 1116 x10E3/uL
- ALANINE AMINOTRANSFERASE [3]: 48 u/L
- ALBUMIN [3]: 4.03 G/DL
- ALKALINE PHOSPHATASE [3]: 270 u/L
- ASPARTATE AMINOTRANSFERASE [3]: 93.33 u/L
- BLOOD UREA NITROGEN [3]: 15.67 mg/dL
- CARBON DIOXIDE [3]: 27.67 mmol/L
- CHLORIDE [3]: 100 MEQ/L
- CHOLESTEROL [3]: 88.67 mg/dL
- CREATINE PHOSPHOKINASE [3]: 222.67 u/L
- CREATININE [3]: 0.17 mg/dL
- GLUCOSE [3]: 150.33 mg/dL
- LACTATE DEHYDROGENASE [3]: 150.67 u/L
- LIPASE [3]: 8 u/L
- PHOSPHORUS [3]: 11.93 mg/dL
- POTASSIUM [3]: 6.17 MEQ/L
- SODIUM [3]: 143.67 MEQ/L
- TOTAL BILIRUBIN [3]: 0.2 mg/dL
- TOTAL PROTEIN [3]: 5.7 G/DL
- URIC ACID [3]: 1.3 mg/dL
- ABSOLUTE BASOPHIL [4]: 0 CELLS/uL
- ABSOLUTE EOSINOPHIL [4]: 37.33 CELLS/uL
- ABSOLUTE LYMPHOCYTE [4]: 8871.33 CELLS/uL
- ABSOLUTE MONOCYTE [4]: 96.67 CELLS/uL
- ABSOLUTE SEGMENTED NEUTROPHIL [4]: 1228 CELLS/uL
- BASOPHIL [4]: 0%
- EOSINOPHIL [4]: 0.33%
- ERYTHROCYTE COUNT [4]: 6.24 x10E6/uL
- HEMATOCRIT [4]: 37.73%
- HEMOGLOBIN [4]: 14.83 G/DL
- LEUKOCYTE COUNT [4]: 10.23 x10E3/uL
- LYMPHOCYTE [4]: 86.67%
- MEAN CORPUSCULAR HEMOGLOBIN [4]: 23.77 pg
- MEAN CORPUSCULAR HEMOGLOBIN CONCENTRATION [4]: 39.33 G/DL
- MEAN CORPUSCULAR VOLUME [4]: 60.47 fL
- MONOCYTE [4]: 1%
- NEUTROPHIL [4]: 12%
- NUCLEATED RED BLOOD CELLS [4]: 0 /100WBC
- PLATELET COUNT [4]: 1180.33 x10E3/uL
- ALANINE AMINOTRANSFERASE [4]: 39.67 u/L
- ALBUMIN [4]: 4.13 G/DL
- ALKALINE PHOSPHATASE [4]: 195.33 u/L
- ASPARTATE AMINOTRANSFERASE [4]: 76.33 u/L
- BLOOD UREA NITROGEN [4]: 17.33 mg/dL
- CARBON DIOXIDE [4]: 26.33 mmol/L
- CHLORIDE [4]: 104 MEQ/L
- CHOLESTEROL [4]: 87.67 mg/dL
- CREATINE PHOSPHOKINASE [4]: 160 u/L
- CREATININE [4]: 0.19 mg/dL
- GLUCOSE [4]: 148.67 mg/dL
- LACTATE DEHYDROGENASE [4]: 101 u/L
- LIPASE [4]: 40.67 u/L
- PHOSPHORUS [4]: 9.83 mg/dL
- POTASSIUM [4]: 6.59 MEQ/L
- SODIUM [4]: 145.77 MEQ/L
- TOTAL BILIRUBIN [4]: 0.13 mg/dL
- TOTAL PROTEIN [4]: 6 G/DL
- URIC ACID [4]: 1.17 mg/dL
